# Results published in ChEMBL document CHEMBL4613212, “Insights of synthetic analogues of anti-leprosy agents” (Bioorg Med Chem, 2019).
# Assays:
# Mycobacterium leprae [1] = assay: Anti-leprotic activity against Mycobacterium leprae subcultures at 4 weeks assessed as ATP level per 10^7 cells at 5.0 mg/L measured by bioluminescence assay (reference value: 462 +/- 64 pg); assay type: functional
# Mycobacterium leprae [2] = assay: Anti-leprotic activity against Mycobacterium leprae primary cultures at 4 weeks assessed as [3H]thymidine uptake per 5 times 10^7 cells at 10.0 mg/L (reference value: 0.95 +/- 0.01 pmol); assay type: functional
# Mycobacterium leprae [3] = assay: Anti-leprotic activity against Mycobacterium leprae primary cultures at 4 weeks assessed as ATP level per 10^7 cells at 15.0 mg/L measured by bioluminescence assay (reference value: 314 +/- 46 pg); assay type: functional
# Mycobacterium leprae [4] = assay: Antimicrobial activity against Mycobacterium leprae; assay type: functional
# Mycobacterium leprae [5] = assay: Anti-leprotic activity against Mycobacterium leprae subcultures at 4 weeks assessed as [3H]thymidine uptake per 5 times 10^7 cells at 15.0 mg/L (reference value: 1.28 +/- 0.14 pmol); assay type: functional
# Mycobacterium leprae [6] = assay: Anti-leprotic activity against Mycobacterium leprae primary cultures at 4 weeks assessed as ATP level per 10^7 cells at 10.0 mg/L measured by bioluminescence assay (reference value: 314 +/- 46 pg); assay type: functional
# Mycobacterium leprae [7] = assay: Anti-leprotic activity against Mycobacterium leprae subcultures at 4 weeks assessed as [3H]thymidine uptake per 5 times 10^7 cells at 5.0 mg/L (reference value: 1.28 +/- 0.14 pmol); assay type: functional
# Mycobacterium leprae [8] = assay: Anti-leprotic activity against Mycobacterium leprae primary cultures at 4 weeks assessed as ATP level per 10^7 cells at 5.0 mg/L measured by bioluminescence assay (reference value: 314 +/- 46 pg); assay type: functional
# Mycobacterium leprae [9] = assay: Anti-leprotic activity against Mycobacterium leprae primary cultures at 4 weeks assessed as [3H]thymidine uptake per 5 times 10^7 cells at 5.0 mg/L (reference value: 0.95 +/- 0.01 pmol); assay type: functional
# Mycobacterium leprae [10] = assay: Anti-leprotic activity against Mycobacterium leprae subcultures at 4 weeks assessed as [3H]thymidine uptake per 5 times 10^7 cells at 10.0 mg/L (reference value: 1.28 +/- 0.14 pmol); assay type: functional
# Mycobacterium leprae [11] = assay: Anti-leprotic activity against Mycobacterium leprae subcultures at 4 weeks assessed as ATP level per 10^7 cells at 15.0 mg/L measured by bioluminescence assay (reference value: 462 +/- 64 pg); assay type: functional
# Mycobacterium leprae [12] = assay: Anti-leprotic activity against Mycobacterium leprae primary cultures at 4 weeks assessed as [3H]thymidine uptake per 5 times 10^7 cells at 15.0 mg/L (reference value: 0.95 +/- 0.01 pmol); assay type: functional
# Mycobacterium leprae [13] = assay: Anti-leprotic activity against Mycobacterium leprae subcultures at 4 weeks assessed as ATP level per 10^7 cells at 10.0 mg/L measured by bioluminescence assay (reference value: 462 +/- 64 pg); assay type: functional
# [14] = Cytotoxicity against LPS-induced human monocytes assessed as cell viability at 50 uM by tryphan blue staining based assay relative to control; set-up: species or system Monocyte; conditions: read-out: Activity
# Monocyte [15] = assay: Antiinflammatory activity in human monocytes assessed as inhibition of LPS-induced TNFaplha production at 25 uM preincubated for 15 mins followed by LPS addition and measured after 4 hrs by ELISA relative to control; assay type: functional
# Monocyte [16] = assay: Antiinflammatory activity in human monocytes assessed as inhibition of LPS-induced TNFaplha production at 5 uM preincubated for 15 mins followed by LPS addition and measured after 4 hrs by ELISA relative to control; assay type: functional
# Monocyte [17] = assay: Antiinflammatory activity in human monocytes assessed as inhibition of LPS-induced TNFaplha production at 0.5 uM preincubated for 15 mins followed by LPS addition and measured after 4 hrs by ELISA relative to control; assay type: functional
# [18] = Cytotoxicity against LPS-induced human monocytes assessed as cell viability at 0.5 uM by tryphan blue staining based assay relative to control; set-up: species or system Monocyte; conditions: read-out: Activity
# [19] = Cytotoxicity against LPS-induced human monocytes assessed as cell viability at 5 uM by tryphan blue staining based assay relative to control; set-up: species or system Monocyte; conditions: read-out: Activity
# Monocyte [20] = assay: Antiinflammatory activity in human monocytes assessed as inhibition of LPS-induced TNFaplha production at 50 uM preincubated for 15 mins followed by LPS addition and measured after 4 hrs by ELISA relative to control; assay type: functional
# [21] = Cytotoxicity against LPS-induced human monocytes assessed as cell viability at 25 uM by tryphan blue staining based assay relative to control; set-up: species or system Monocyte; conditions: read-out: Activity
# [22] = tested on: Mycobacterium tuberculosis; assay: Antitubercular activity against Mycobacterium tuberculosis H37Rv ATCC 27294 assessed as growth inhibition at 6.25 ug/ml by microplate alamar blue assay relative to control; assay type: functional
# [23] = tested on: Mycobacterium tuberculosis; assay: Antitubercular activity against Mycobacterium tuberculosis H37Rv ATCC 27294 assessed as inhibition of [3H]-thymidine incorporation; assay type: functional, organism-based
# [24] = tested on: Mycobacterium tuberculosis; assay: Antitubercular activity against Mycobacterium tuberculosis H37Rv ATCC 27294 assessed as inhibition of [3H]-thymidine incorporation relative to control; assay type: functional
# [25] = tested on: Mycobacterium tuberculosis; assay: Antimycobacterial activity against Mycobacterium tuberculosis H37Rv infected in CF-1 mouse assessed as change in survival time at 5 mg/kg administrated daily for 14 days with food relative to control; assay type: functional
# [26] = tested on: Mycobacterium tuberculosis; assay: Antimycobacterial activity against Mycobacterium tuberculosis H37Rv infected in CF-1 mouse assessed as change in survival time at 11 mg/kg administrated daily for 14 days with food relative to control; assay type: functional
# [27] = tested on: Mycobacterium tuberculosis; assay: Antimycobacterial activity against Mycobacterium tuberculosis H37Rv infected in CF-1 mouse assessed as change in survival time at 3 mg/kg administrated daily for 14 days with food relative to control; assay type: functional
smiles,measurement,setting,value
COc1cc(Cc2cnc(N)nc2N)cc(OC)c1Br [BRODIMOPRIM],Activity,Mycobacterium leprae [1],346 pg
same,Activity,Mycobacterium leprae [2],0.24 pmol
same,Activity,Mycobacterium leprae [3],0 pg
same,MIC,Mycobacterium leprae [4],0.025 µg/mL
same,Activity,Mycobacterium leprae [5],0 pmol
same,Activity,Mycobacterium leprae [6],108 pg
same,Activity,Mycobacterium leprae [7],1.1 pmol
same,Activity,Mycobacterium leprae [8],296 pg
same,Activity,Mycobacterium leprae [9],0.88 pmol
same,Activity,Mycobacterium leprae [10],0.27 pmol
same,Activity,Mycobacterium leprae [11],0 pg
same,Activity,Mycobacterium leprae [12],0 pmol
same,Activity,Mycobacterium leprae [13],109 pg
CCC1(N2C(=O)c3ccccc3C2=O)C(=O)NC(=O)N(c2ccccc2)C1=O (stereo not given),viability at 50 µM,[14],68%
same,inhibition at 25 µM,Monocyte [15],100%
same,inhibition at 5 µM,Monocyte [16],88%
same,inhibition at 0.5 µM,Monocyte [17],12%
same,viability at 0.5 µM,[18],87%
same,viability at 5 µM,[19],80%
same,inhibition at 50 µM,Monocyte [20],100%
same,viability at 25 µM,[21],73%
OC[C@H]1O[C@@H](n2cnc3c(-c4ccccc4)ncnc32)[C@H](O)[C@@H]1O,inhibition at 6.25 µg/mL,[22],14%
same,IC50,[23],0.4 µg/mL
same,inhibition (INH),[24],99%
OC[C@H]1O[C@@H](n2cnc3c(-c4ccco4)nc(Cl)nc32)[C@H](O)[C@@H]1O,inhibition at 6.25 µg/mL,[22],7%
same,IC50,[23],3.4 µg/mL
same,inhibition (INH),[24],100%
Brc1ccc(/N=N/c2ccc(NCCCN3CCCCC3)c3c2CCCC3)cc1,MST,[25],19 days
same,MST,[26],38 days
same,MST,[27],11 days
